The text below walks through data of patent US11744840B2, “N-palmitoyl-D-glucosamine in a micronized form” (Innovet Italia S.R.L., priority 2018, dated 2023).

For orientation: melting point means the temperature, or range, at which the solid turns liquid.

Series [1] has as its system carrageenan edema in the rat's paw. In words: carrageenan edema in the rat's paw, physical forms of PGA and Curcumin. Format: in vivo. To be noted: for edema as a percentage of the edema produced only by carrageenan (value of 100) / pharmacological effect on carrageenan edema (in words): rat; for edema as a percentage of the edema produced only by carrageenan (value of 100): PGA 30, PGA-m 20, CUR-m 10, PGACUR-m 30, PGA-sm 20 mg/kg; for pharmacological effect on carrageenan edema (in words): PGA 30, PGA-m 20, PGA-sm 20, CUR 10, PGACUR-m 30 mg/kg. Here is the method:
The experimental model of carrageenan edema was used in the rat's paw, which determines epithelial dysfunction at the paw level.
The experimental model of carrageenan edema in the paw was induced by sub-plantar injection of a carrageenan solution (containing 50 μl of sterile saline containing 1% carrageenan) into the right paw of the animal (rat).
At specific time intervals the plantar volume was measured by a plethysmometer (Ugo Basile, Milan, Italy). The increase in plantar volume was evaluated as the difference between the value obtained in the specific time intervals and the volume at baseline (time 0) measured immediately before the administration of carrageenan.
The following physical forms of N-palmitoyl-D-glucosamine were tested: • Non-micronized N-palmitoyl-D-glucosamine (PGA); • Micronized N-palmitoyl-D-glucosamine (PGA-m); • N-palmitoyl-D-glucosamine co-micronized with Curcumin (PGACUR-m); • N-palmitoyl-D-glucosamine in a sub-micron form (PGA-sm).
The following physical form of Curcumin was also tested: • Micronized Curcumin (CUR-m)
In all cases PGA was tested as a PGA/fatty acid mixture.
The thus obtained results, expressed as a percentage of the edema produced only by carrageenan (indicated with a value of 100), are as follows: […]

The test system is the same in series [2]. In words: carrageenan edema in the rat's paw, PGA with or without Polydatin. The format is in vivo. Conditions: Wistar rat, doses per group b126-b129, unit assumed. On the procedure:
Also in this case, the experimental model of carrageenan edema in the rat's paw was used, which determines epithelial dysfunction at the paw level.
The edema was induced by the sub-plantar injection of 50 μl of an aqueous 1% carrageenan solution. At time intervals (30 min, 1 h, 2 h, 3 h, 4 h, 5 h, 6 h) the volume of the injected paw was evaluated by means of a plethysmometer (Ugo Basile, Milan—Italy). The following physical forms of N-palmitoyl-D-glucosamine with or without Polydatin were tested in groups of 10 animals (Wistar strain weighing between 130 and 160 g) for each group, in the dosages indicated in brackets:
Group B) Carrageenan+micronized Palmitoylglucosamine (10 mg/kg)
Group C) Carrageenan+micronized Polydatin (1 mg/kg)
Group D) Carrageenan+Palmitoylglucosamine (10 mg/kg)+Polydatin (1 mg/kg) [mixed]
Group E) Carrageenan+Palmitoylglucosamine and co-micronized Polydatin [10:1] (11 mg/kg)

On to `COc1cc(/C=C/C(=O)CC(=O)/C=C/c2ccc(O)c(OC)c2)ccc1O` [CUR-m, Curcumin, reference compound], for which the “edema as a percentage of the edema produced only by carrageenan (value of 100)” value (“edema as a percentage” for short) is given as 100.3% in series [1] (30 min); 95.4% in series [1] (1 hr); 95.1% in series [1] (2 hr); 94.8% in series [1] (3 hr); 96.2% in series [1] (4 hr); 97.4% in series [1] (5 hr). Further, the figures for the “pharmacological effect on carrageenan edema (in words)” value (“pharmacological effect” below) in series [1] (listed as micronized CUR) and in series [1] (listed as micronized Curcumin) were “no significant pharmacological effect” and “almost total inactivity”, respectively.
On to `OC[C@H]1O[C@@H](Oc2cc(O)cc(/C=C/c3ccc(O)cc3)c2)[C@H](O)[C@@H](O)[C@@H]1O` [Group C), Polydatin, reference compound], for which the Paw volume in series [2] (30 min from treatment) came to 0.21 mL; in series [2] (1 h from treatment) it was 0.32 mL; in series [2] (2 h from treatment), 0.69 mL; in series [2] (3 h from treatment) it was 1.03 mL; in series [2] (4 h from treatment), 1.19 mL; in series [2] (5 h from treatment), 1.28 mL. In addition, the Paw volume in series [2] (6 h from treatment) is 0.95 mL.
As to `CCCCCCCCCCCCCCCC(=O)N[C@H]1C(O)O[C@H](CO)[C@@H](O)[C@@H]1O` (stereo partly drawn) [PGA, N-palmitoyl-D-glucosamine], the melting point was 202 °C (dec.). Besides, the “edema as a percentage” value in series [1] (30 min) came to 100.0%. The “edema as a percentage” value in series [1] (1 hr) is listed as 100.0%. Further, in series [1] (2 hr), the “edema as a percentage” value worked out at 100.0%. The “edema as a percentage” value in series [1] (3 hr) turned out to be 100.0%. In series [1] (4 hr), the “edema as a percentage” value is reported as 100.0%. Also, in series [1] (5 hr), the “edema as a percentage” value is 100.0%. For the same compound, the “pharmacological effect” value in series [1] (listed as PGA (non-micronized)) is given as “no pharmacological effect”. In addition, the “pharmacological effect” value in series [1] (listed as non-micronized PGA) is given as “total inactivity”.
As for `CCCCCCCCCCCCCCCC(=O)N[C@H]1C(O)O[C@H](CO)[C@@H](O)[C@@H]1O` (stereo partly drawn) [PGA-m, N-palmitoyl-D-glucosamine], the “edema as a percentage” value in series [1] (30 min) was found to be 100.0%; in series [1] (1 hr) it was 92.2%; in series [1] (2 hr), 80.1%; in series [1] (3 hr) it was 71.5%; in series [1] (4 hr), 70.4%; in series [1] (5 hr), 75.5%. In addition, the “reduction of the Carrageenan edema” value in series [1] (PGA-m 20 mg/Kg, co-micronized PGA-m 20 mg/Kg + CUR 10 mg/kg, corresponds to the 5 hr values of Table 1) was determined as 24.5%. Further, the “pharmacological effect” value in series [1] is recorded as “apparent pharmacological effect”. Besides, the Paw volume in series [2] (30 min from treatment) amounted to 0.23 mL; in series [2] (1 h from treatment), 0.33 mL; in series [2] (2 h from treatment), 0.81 mL; in series [2] (3 h from treatment), 1 mL; in series [2] (4 h from treatment) it was 1.21 mL; in series [2] (5 h from treatment) it was 1.33 mL. In series [2] (6 h from treatment), this compound yielded a Paw volume of 1.05 mL.
As for `CCCCCCCCCCCCCCCC(=O)N[C@H]1C(O)O[C@H](CO)[C@@H](O)[C@@H]1O` (stereo partly drawn) [PGA-sm, N-palmitoyl-D-glucosamine], the “edema as a percentage” value in series [1] (30 min) amounted to 100.0%; in series [1] (1 hr), 100.0%; in series [1] (2 hr) it was 98.0%; in series [1] (3 hr), 97.0%; in series [1] (4 hr) it was 98.0%; in series [1] (5 hr), 98.0%. The “pharmacological effect” value is recorded as “no significant pharmacological effect” in series [1], “markedly pejorative activity compared to the micronized PGA” in series [1] (listed as sub-micron PGA) and “almost total inactivity” in series [1] (listed as sub-micronized PGA).
